The values below come from US20260272881A1, “QTX125 DRUG FORMULATIONS” (Quimatryx, S.L., priority 2022, published 2026).

One series deals with rats, mice and dogs. To be noted: range of animal species including rats; cited from earlier work.
A further series has as its system mantle cell lymphoma. To be noted: mantle cell lymphoma xenograft murine model; cited from earlier work.
The nature of series [1]: Solubility trials of QTX125 formulations (mixed 24 hours at room temperature). It counts as physicochemical. To be noted: aqueous HPβCD solution (HPβCD as only excipient), aqueous with cosolvent or surfactant or cyclodextrin, thermodynamic from solid; with HPβCD alone (Example 1.3). As to the method: The parameters required for the HPLC method used to determine the concentration of QTX125 in solution is set out below.
HPLC determination of the percentage of QTX125 in the solutions below was determined using the protocols set out above.
Assay (% LC) was determined by comparing the area of the peak for QTX125 to a calibration curve determined by running samples of known concentration of QTX125 (standards) on the HPLC.

The next series has as its system lung cancer. To be noted: lung cancer xenograft murine model; cited from earlier work.
Series [2] is described as follows: Pharmacokinetic properties (half-lives, distribution volumes). It counts as in vivo. To be noted: compared with other histone deacetylase inhibitors.
The conditions of series [3]: hydroxamic acids such as QTX125; cited from earlier work.
Another series concerns the target T1, HDAC 6 (Homo sapiens, UniProt Q9UBN7).
T1 sequence (Q9UBN7 1-1215): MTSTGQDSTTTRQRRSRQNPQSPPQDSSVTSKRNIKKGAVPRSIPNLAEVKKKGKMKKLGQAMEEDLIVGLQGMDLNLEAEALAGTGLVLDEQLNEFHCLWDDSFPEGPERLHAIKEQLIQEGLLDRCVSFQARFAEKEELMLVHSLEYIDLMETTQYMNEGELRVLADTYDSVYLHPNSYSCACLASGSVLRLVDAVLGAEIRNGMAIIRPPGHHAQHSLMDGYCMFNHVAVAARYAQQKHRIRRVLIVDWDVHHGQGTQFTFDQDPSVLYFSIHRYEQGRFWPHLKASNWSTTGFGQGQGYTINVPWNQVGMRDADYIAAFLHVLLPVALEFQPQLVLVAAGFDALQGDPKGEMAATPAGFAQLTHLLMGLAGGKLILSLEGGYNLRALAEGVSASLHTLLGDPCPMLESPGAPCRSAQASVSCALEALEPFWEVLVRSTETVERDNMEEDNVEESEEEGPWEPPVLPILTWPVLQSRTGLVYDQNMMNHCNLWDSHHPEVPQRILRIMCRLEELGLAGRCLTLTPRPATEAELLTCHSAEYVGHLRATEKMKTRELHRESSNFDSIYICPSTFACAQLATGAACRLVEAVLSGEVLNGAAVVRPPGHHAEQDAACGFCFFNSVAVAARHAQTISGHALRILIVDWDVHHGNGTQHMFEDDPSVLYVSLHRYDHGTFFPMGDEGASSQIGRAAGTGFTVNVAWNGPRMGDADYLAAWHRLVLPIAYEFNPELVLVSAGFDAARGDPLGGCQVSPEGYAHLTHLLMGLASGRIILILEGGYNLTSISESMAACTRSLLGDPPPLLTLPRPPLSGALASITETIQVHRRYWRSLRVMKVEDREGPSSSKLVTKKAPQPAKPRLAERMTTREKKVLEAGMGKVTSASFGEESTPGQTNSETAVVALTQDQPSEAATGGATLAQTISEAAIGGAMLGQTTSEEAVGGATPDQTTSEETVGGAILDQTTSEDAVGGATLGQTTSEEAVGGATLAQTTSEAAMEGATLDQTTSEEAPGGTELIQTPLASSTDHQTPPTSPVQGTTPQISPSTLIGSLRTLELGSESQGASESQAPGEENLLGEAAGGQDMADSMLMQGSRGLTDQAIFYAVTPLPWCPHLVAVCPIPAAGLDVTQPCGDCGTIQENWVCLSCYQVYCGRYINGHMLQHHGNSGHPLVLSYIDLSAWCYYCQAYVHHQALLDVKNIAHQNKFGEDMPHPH
To be noted: cited from earlier work.

Series [4] in a line: Genotoxicity (clastogenicity, aneugenicity).
For series [5], the system named is multiple sclerosis mice models. To be noted: two different multiple sclerosis mice models; cited from earlier work.
A further series concerns pancreatic cancer. To be noted: pancreatic cancer xenograft murine model; cited from earlier work.
The nature of series [6]: Solubility in water and stability in solution of QTX125 (background). It is filed as physicochemical.
In the next series the test system is mice. To be noted: cited from earlier work.
The conditions of series [7]: acute toxicity studies; cited from earlier work.

Converted amounts (≈) assume the structure as drawn.

In the case of 2-hydroxypropyl-β-cyclodextrin, the tolerance result with rats, mice and dogs is reported as “well tolerated”.

On to `O=C(NO)c1ccc(CNC(=O)c2[nH]c(-c3ccc(O)cc3)cc2-c2ccoc2)cc1` [QTX125, 3-(3-Furyl)-N-{4-[(hydroxyamino)carbonyl]benzyl}-5-(4-hydroxyphenyl)-1 Hpyrrole-2-carboxamide], for which the antitumoral efficacy result with mantle cell lymphoma, with lung cancer and in the series with pancreatic cancer was “high antitumoral efficacy” each time. Also, the solubility at 24 h in series [1] came out at 140 µg/mL (≈ 335 µM). In series [2], the “pharmacokinetic properties (half-lives and distribution volumes)” value is “higher half-lives and distribution volumes”. Further, the solubility in water entry in series [3] is given as “very low solubility in water”. Further, the “HDAC 6 inhibition” value at HDAC 6 was “highly selective and highly potent”. In addition, the “genotoxicity, in particular clastogenicity or aneugenicity” value in [4] is listed as “no evidence of genotoxicity”. Moreover, the efficacy result in series [5] is “high efficacy”. Further, the stability in solution entry in [6] was “physical and chemical instability in solution”.

As for sulfobutyl ether β cyclodextrin [SBβCD], the renal histopathology result in the series with mice is reported as “no negative renal histopathology”. In [7], the acute toxicity entry is “no observable effects”.
